According to patent publication US20120082647A1, “INTERFERON-BETA FOR USE AS MONOTHERAPY OR IN COMBINATION WITH OTHER CANCER THERAPIES” (priority 2010, published 2012):

Legend:
ERK phosphorylation = ERK phosphorylation in SK-MEL-1 tumors (western blot); format: in vivo, nude mice; settings: SK-MEL-1 tumors removed 8 hours post last dose; FIG. 4
Protocol: Athymic nude mice were inoculated with 2×10^6 SK-MEL-1 human melanoma cells (1 injection in flank; 1 injection per mouse) and 100-200 cubic mm tumors were established. pegylated IFN β-1a was provided in 20 mM acetic acid/sodium acetate at a pH of 4.8 and 150 mM arginine/HCl containing 15 mg/mL human serum albumin (HSA). HSA was used as a control and administered at a concentration of 15 mg/mL. Mice (10 per group) were randomized and treated with either:
i. PEG400 (once a day (QD) for 14 days) and pegylated Interferon-beta-1a (10 μg once a week (QW) for 3 weeks); ii. PD325901 (15 mg/kg once a day (QD) for 14 days) and pegylated Interferon-beta-1a (10 μg once a week (QW) for 3 weeks); iii. PEG400 (once a day (QD) for 14 days) and (HSA) (QW for 3 weeks); iv. PD325901 (15 mg/kg once a day (QD) for 14 days) and HSA (QW for 3 weeks).
Tumors were measured every 3 days using calipers and volume was calculated for a prolate spheroid. The identity of the vehicle control for pegylated interferon-beta-1a vehicle (HSA) and pegylated Interferon-beta-1a was blinded. Tumors were removed 8 hours post last dose and frozen for ERK phosphorylation analysis.

[1] = test system: SK-MEL-1 human melanoma cells; test: SK-MEL-1 melanoma tumor volume in nude mice; format: in vivo; settings: SK-MEL-1 tumor volume; PD325901 15 mg/kg QD 14 days, pegylated Interferon-beta-1a 10 μg QW 3 weeks
Protocol: Tumors were measured every 3 days using calipers and volume was calculated for a prolate spheroid, defined as:
where L equals the major diameter and W equals the minor diameter.

[2] = test system: MDA-MB-231 breast carcinoma cells; test: MDA-MB-231 breast carcinoma tumor volume in SCID mice; format: in vivo; settings: paclitaxel 25 mg/kg I.P. q4d x 3, pegylated interferon beta 1a 0.4 to 1.6 mg/kg SC BIW
Protocol: 8-10 week old SCID mice from Charles River Labs were inoculated subcutaneously with 5×10^6 MDA-MB-231 breast carcinoma cells with 50% matrigel in the flank region. When the average tumor volumes reached approximately 200 mm^3 the tumor-bearing mice were randomized to treatment groups. Pegylated IFN-1a was provided in 20 mM acetic acid/sodium acetate at a pH of 4.8 and 150 mM arginine/HCl (4.8A buffer). Paclitaxel was provided in a Cremophor Ethanol Saline mixture (CES buffer).

Compound | ERK phosphorylation compared to vehicle and pegylated Interferon-beta-1a treated groups (ERK phosphorylation) | difference between estimates of least square means between treatment groups and vehicle control group [1] | inhibition of tumor growth, single agent versus vehicle controls [2]
O=C(NOC[C@H](O)CO)c1ccc(F)c(F)c1Nc1ccc(I)cc1F [PD325901, N-[(2R)-2,3-dihydroxypropoxy]-3,4-difluoro-2-[(2-fluoro-4-iodo-phenyl)amino]benzamide] | significant inhibition of ERK phosphorylation | −4.52 | 
CC(=O)O[C@H]1C(=O)[C@@]2(C)[C@H]([C@H](OC(=O)c3ccccc3)[C@]3(O)C[C@H](OC(=O)[C@H](O)[C@@H](NC(=O)c4ccccc4)c4ccccc4)C(C)=C1C3(C)C)[C@]1(OC(C)=O)CO[C@@H]1C[C@@H]2O [paclitaxel] |  |  | greater inhibition of tumor growth compared to mice treated with vehicle controls
